# According to patent US9902728B2, “Pyrrolo and pyrazolopyrimidines as ubiquitin-specific protease 7 inhibitors” (Forma Therapeutics, Inc., priority 2014, dated 2018):
# Molecular target: T1, USP7 (Homo sapiens, UniProt Q93009)
# T1 construct: USP7, construct USP7 (208-1102) 6*His, Viva Biotech; 6xHis (C); purchased Viva Biotech
# Assay: USP7 Assay A (Ubitquin-Rhodamine 110 Assay)
# Type: biochemical
# Conditions: USP7 activity in USP7 assay A and B (table does not say which assay per compound); read-out: USP7_IC50
# Method in brief: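 Enzyme and compound sat together for 30 min before Ub-Rh110 was added, in buffer of 20 mM Tris-HCl (pH 8.0), 1 mM GSH, 0.03% BGG and 0.01% Triton X-100.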
# T1 sequence (Q93009 208-1102): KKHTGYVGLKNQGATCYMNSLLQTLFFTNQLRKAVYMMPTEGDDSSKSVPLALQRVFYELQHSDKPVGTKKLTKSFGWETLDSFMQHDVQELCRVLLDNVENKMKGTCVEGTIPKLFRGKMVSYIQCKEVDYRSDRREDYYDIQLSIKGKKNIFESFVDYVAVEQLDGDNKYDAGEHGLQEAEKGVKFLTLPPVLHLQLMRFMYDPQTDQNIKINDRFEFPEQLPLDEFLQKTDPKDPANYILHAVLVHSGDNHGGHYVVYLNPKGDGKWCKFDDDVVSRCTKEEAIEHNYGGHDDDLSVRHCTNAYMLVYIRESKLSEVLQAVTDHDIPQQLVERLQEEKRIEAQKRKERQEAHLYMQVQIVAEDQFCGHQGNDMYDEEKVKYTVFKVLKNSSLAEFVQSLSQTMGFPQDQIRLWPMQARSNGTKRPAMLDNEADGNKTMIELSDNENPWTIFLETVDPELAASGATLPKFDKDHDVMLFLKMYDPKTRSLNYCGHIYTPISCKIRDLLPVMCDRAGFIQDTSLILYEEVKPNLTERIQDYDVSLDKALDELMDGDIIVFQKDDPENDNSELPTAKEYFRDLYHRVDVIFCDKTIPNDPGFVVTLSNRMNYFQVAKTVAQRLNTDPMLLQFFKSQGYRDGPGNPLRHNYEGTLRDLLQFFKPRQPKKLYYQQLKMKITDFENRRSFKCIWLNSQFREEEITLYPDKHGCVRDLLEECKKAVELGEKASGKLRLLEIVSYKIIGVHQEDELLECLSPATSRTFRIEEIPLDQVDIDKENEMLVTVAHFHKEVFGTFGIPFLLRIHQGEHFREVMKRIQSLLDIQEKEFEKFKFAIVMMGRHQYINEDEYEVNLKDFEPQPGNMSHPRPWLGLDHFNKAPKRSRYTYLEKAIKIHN
row,Structure (SMILES),IC50
1,O=C(C[C@H](C(F)F)n1cc(F)cn1)N1CCC(O)(Cn2cnc3c(cnn3-c3ccc(F)cc3)c2=O)CC1 [Compound I-1159],< 200 nM
2,Cc1ccc(-n2ncc3c(=O)n(CC4(O)CCN(C(=O)c5ccc(Oc6ccc(OCCO)cn6)cc5)CC4)cnc32)cc1 [Compound I-1160],200 to 1000 nM
3,Cn1cc(C(=O)N2CCC(O)(Cn3cnc4c(cnn4-c4ccc(F)cc4)c3=O)CC2)c(Cc2ccccc2)n1 [Compound I-1161],< 200 nM
4,C[C@H](c1ccccc1)c1nn(C)cc1C(=O)N1CCC(O)(Cn2cnc3c(cnn3-c3ccc(F)cc3)c2=O)CC1 [Compound I-1162],< 200 nM
5,C[C@@H](c1ccccc1)c1nn(C)cc1C(=O)N1CCC(O)(Cn2cnc3c(cnn3-c3ccc(F)cc3)c2=O)CC1 [Compound I-1163],1000 to 10000 nM
6,Cc1onc(Cc2ccccc2)c1C(=O)N1CCC(O)(Cn2cnc3c(cnn3-c3ccc(F)cc3)c2=O)CC1 [Compound I-1164],< 200 nM
7,O=C(C[C@@H](C(F)F)n1ccc(F)n1)N1CCC(O)(Cn2cnc3c(cnn3-c3ccc(Cl)cc3)c2=O)CC1 [Compound I-1166],< 200 nM
8,O=C(C[C@H](C(F)F)n1ccc(F)n1)N1CCC(O)(Cn2cnc3c(cnn3-c3ccc(Cl)cc3)c2=O)CC1 [Compound I-1167],1000 to 10000 nM
9,CC1(O)CCN(c2ccc(-n3ncc4c(=O)n(CC5(O)CCN(C(=O)c6ccc(F)cc6)CC5)cnc43)cc2)C1 (stereo not shown) [Compound I-1168],200 to 1000 nM
10,O=C(c1ccc(F)cc1)N1CCC(O)(Cn2cnc3c(cnn3-c3ccc(N4CCCn5ccnc54)cc3)c2=O)CC1 [Compound I-1170],200 to 1000 nM
11,Cc1nc2n(n1)CCN(c1ccc(-n3ncc4c(=O)n(CC5(O)CCN(C(=O)c6ccc(F)cc6)CC5)cnc43)cc1)C2 [Compound I-1176],1000 to 10000 nM
12,O=C(c1ccc(F)cc1)N1CCC(O)(Cn2cnc3c(cnn3-c3ccc(N4CCn5ncnc5C4)cc3)c2=O)CC1 [Compound I-1178],1000 to 10000 nM
13,O=C(C1CCC(Oc2cccnn2)CC1)N1CCC(O)(Cn2cnc3c(cnn3-c3ccc(F)cc3)c2=O)CC1 (stereo not shown) [Compound I-1212],200 to 1000 nM
14,O=C(c1ccc(F)cc1)N1CCC(O)(Cn2cnc3c(cnn3-c3ccc(N4CC[C@H](O)C4)cc3)c2=O)CC1 [Compound I-1434],1000 to 10000 nM
15,CC1(C(=O)N2CCC(O)(Cn3cnc4c(cnn4-c4ccc(N5CCC(F)CC5)cc4)c3=O)CC2)CC1 [Compound I-1445],200 to 1000 nM

# Same assay, conditions: USP7 assay A and B (table does not say which assay per compound); read-out: USP7_IC50
row,Structure (SMILES),IC50
1,CC(C)OCCNc1ccc(-n2ncc3c(=O)n(CC4(O)CCN(C(=O)C5CC5)CC4)cnc32)cc1 [Compound I-1149],1000 to 10000 nM
2,CN1CCCC(CNc2ccc(-n3ncc4c(=O)n(CC5(O)CCN(C(=O)C6CC6)CC5)cnc43)cc2)C1 (stereo not shown) [Compound I-1151],200 to 1000 nM
3,O=C(C1CC1)N1CCC(O)(Cn2cnc3c(cnn3-c3cccc(NCc4ccccc4)c3)c2=O)CC1 [Compound I-1155],200 to 1000 nM
4,O=C(C1CC1)N1CCC(O)(Cn2cnc3c(cnn3-c3cccc(NCc4cccnc4)c3)c2=O)CC1 [Compound I-1158],1000 to 10000 nM
5,O=C(C1CC1)N1CCC(O)(Cn2cnc3c(cnn3-c3ccc(NCCc4ccccc4)cc3)c2=O)CC1 [Compound I-1187],1000 to 10000 nM
6,COc1ccc(Nc2ccc(-n3ncc4c(=O)n(CC5(O)CCN(C(=O)C6CC6)CC5)cnc43)cc2)cn1 [Compound I-1191],1000 to 10000 nM
7,O=C(C1CC1)N1CCC(O)(Cn2cnc3c(cnn3-c3cccc(NCCN4CCOCC4)c3)c2=O)CC1 [Compound I-1194],1000 to 10000 nM
8,CC(C)OCCNc1cccc(-n2ncc3c(=O)n(CC4(O)CCN(C(=O)C5CC5)CC4)cnc32)c1 [Compound I-1196],1000 to 10000 nM
9,CN1CCCC(CNc2cccc(-n3ncc4c(=O)n(CC5(O)CCN(C(=O)C6CC6)CC5)cnc43)c2)C1 (stereo not shown) [Compound I-1197],200 to 1000 nM
10,O=C(C1CC1)N1CCC(O)(Cn2cnc3c(cnn3-c3ccc(N4CCCC4)cc3)c2=O)CC1 [Compound I-1199],1000 to 10000 nM
11,O=C(C1CC1)N1CCC(O)(Cn2cnc3c(cnn3-c3cccc(N4CCCC4)c3)c2=O)CC1 [Compound I-1200],200 to 1000 nM
12,O=C(C1CC1)N1CCC(O)(Cn2cnc3c(cnn3-c3cccc(N4CCCCC4)c3)c2=O)CC1 [Compound I-1202],1000 to 10000 nM
13,O=C(C1CC1)N1CCC(O)(Cn2cnc3c(cnn3-c3cccc(N4CCC(c5ccccc5)CC4)c3)c2=O)CC1 [Compound I-1205],1000 to 10000 nM
14,CC(=O)NC1CCN(c2ccc(-n3ncc4c(=O)n(CC5(O)CCN(C(=O)C6CC6)CC5)cnc43)cc2)CC1 [Compound I-1208],1000 to 10000 nM
15,CN(C)C1CCN(c2cccc(-n3ncc4c(=O)n(CC5(O)CCN(C(=O)C6CC6)CC5)cnc43)c2)CC1 [Compound I-1209],200 to 1000 nM
16,CC(=O)N1CCN(c2ccc(-n3ncc4c(=O)n(CC5(O)CCN(C(=O)C6CC6)CC5)cnc43)cc2)CC1 [Compound I-1211],1000 to 10000 nM
17,O=C(C1CC1)N1CCC(O)(Cn2cnc3c(cnn3-c3ccc(-c4ccccn4)cc3)c2=O)CC1 [Compound I-1214],1000 to 10000 nM
18,O=C(C1CC1)N1CCC(O)(Cn2cnc3c(cnn3-c3ccc(N4CCC5(CCOCC5)C4)cc3)c2=O)CC1 [Compound I-1216],1000 to 10000 nM
19,O=C(C1CC1)N1CCC(O)(Cn2cnc3c(cnn3-c3cccc(Nc4ccncc4)c3)c2=O)CC1 [Compound I-1232],1000 to 10000 nM
20,O=C(C1CC1)N1CCC(O)(Cn2cnc3c(cnn3-c3ccc(Nc4ccc(N5CCOCC5)cc4)cc3)c2=O)CC1 [Compound I-1234],1000 to 10000 nM
21,O=C(C1CC1)N1CCC(O)(Cn2cnc3c(cnn3-c3cccc(Nc4ccc5ncsc5c4)c3)c2=O)CC1 [Compound I-1257],200 to 1000 nM
22,N#Cc1ccc(Nc2ccc(-n3ncc4c(=O)n(CC5(O)CCN(C(=O)C6CC6)CC5)cnc43)cc2)nc1 [Compound I-1277],1000 to 10000 nM
23,O=C(c1ccc(F)cc1)N1CCC(O)(Cn2cnc3c(cnn3-c3cccc(OCc4ccccc4)c3)c2=O)CC1 [Compound I-1285],1000 to 10000 nM
24,CN(C)C(=O)N1CCC(O)(Cn2cnc3c(cnn3-c3ccc(OCC4CC4)cc3)c2=O)CC1 [Compound I-1289],1000 to 10000 nM
25,CN(C)C(=O)N1CCC(O)(Cn2cnc3c(cnn3-c3ccc(OCC4CCC4)cc3)c2=O)CC1 [Compound I-1295],1000 to 10000 nM

row,Structure (SMILES),IC50
1,NC(=O)COc1ccc(-n2ncc3c(=O)n(CC4(O)CCN(C(=O)c5ccc(F)cc5)CC4)cnc32)cc1 [Compound I-1307],1000 to 10000 nM
2,CN1CCCCC1COc1ccc(-n2ncc3c(=O)n(CC4(O)CCN(C(=O)c5ccc(F)cc5)CC4)cnc32)cc1 (stereo not shown) [Compound I-1313],200 to 1000 nM
3,CN1CCCCC1COc1cccc(-n2ncc3c(=O)n(CC4(O)CCN(C(=O)c5ccc(F)cc5)CC4)cnc32)c1 (stereo not shown) [Compound I-1314],200 to 1000 nM
4,N#Cc1cccc(COc2ccc(-n3ncc4c(=O)n(CC5(O)CCN(C(=O)c6ccc(F)cc6)CC5)cnc43)cc2)c1 [Compound I-1318],1000 to 10000 nM
5,N#CCOc1ccc(-n2ncc3c(=O)n(CC4(O)CCN(C(=O)c5ccc(F)cc5)CC4)cnc32)cc1 [Compound I-1320],1000 to 10000 nM
6,O=C(c1ccc(F)cc1)N1CCC(O)(Cn2cnc3c(cnn3-c3ccc(OCC4CCOCC4)cc3)c2=O)CC1 [Compound I-1324],1000 to 10000 nM
7,O=C(c1ccc(F)cc1)N1CCC(O)(Cn2cnc3c(cnn3-c3cccc(OCC4CCOCC4)c3)c2=O)CC1 [Compound I-1325],1000 to 10000 nM
8,COCCOc1ccc(-n2ncc3c(=O)n(CC4(O)CCN(C(=O)c5ccc(F)cc5)CC4)cnc32)cc1 [Compound I-1363],1000 to 10000 nM
9,O=C(Nc1ccc(-n2ncc3c(=O)n(CC4(O)CCN(C(=O)C5CC5)CC4)cnc32)cc1)C1CC1 [Compound I-1377],1000 to 10000 nM
10,O=C(Nc1ccc(-n2ncc3c(=O)n(CC4(O)CCN(C(=O)C5CC5)CC4)cnc32)cc1)c1ccccc1F [Compound I-1380],1000 to 10000 nM
11,O=C(Nc1ccc(-n2ncc3c(=O)n(CC4(O)CCN(C(=O)C5CC5)CC4)cnc32)cc1)c1ccccn1 [Compound I-1383],1000 to 10000 nM
12,O=C(Nc1ccc(-n2ncc3c(=O)n(CC4(O)CCN(C(=O)C5CC5)CC4)cnc32)cc1)C1CCOCC1 [Compound I-1395],1000 to 10000 nM
13,Cc1oncc1S(=O)(=O)Nc1cccc(-n2ncc3c(=O)n(CC4(O)CCN(C(=O)C5CC5)CC4)cnc32)c1 [Compound I-1400],1000 to 10000 nM
14,O=C(C1CC1)N1CCC(O)(Cn2cnc3c(cnn3-c3ccc(NCC4CCOCC4)cc3)c2=O)CC1 [Compound I-1402],1000 to 10000 nM
15,O=C(C1CC1)N1CCC(O)(Cn2cnc3c(cnn3-c3cccc(NS(=O)(=O)c4cccc(Cl)c4)c3)c2=O)CC1 [Compound I-1406],1000 to 10000 nM
16,CS(=O)(=O)Nc1cccc(-n2ncc3c(=O)n(CC4(O)CCN(C(=O)C5CC5)CC4)cnc32)c1 [Compound I-1417],1000 to 10000 nM
17,Cc1noc(C)c1S(=O)(=O)Nc1ccc(-n2ncc3c(=O)n(CC4(O)CCN(C(=O)C5CC5)CC4)cnc32)cc1 [Compound I-1421],1000 to 10000 nM
18,O=C(C1CC1)N1CCC(O)(Cn2cnc3c(cnn3-c3ccc(NS(=O)(=O)c4ccc(Cl)cc4)cc3)c2=O)CC1 [Compound I-1422],1000 to 10000 nM
19,Cc1ccccc1S(=O)(=O)Nc1ccc(-n2ncc3c(=O)n(CC4(O)CCN(C(=O)C5CC5)CC4)cnc32)cc1 [Compound I-1425],1000 to 10000 nM
20,O=C(C1CC1)N1CCC(O)(Cn2cnc3c(cnn3-c3ccc(NS(=O)(=O)c4cccc(Cl)c4)cc3)c2=O)CC1 [Compound I-1428],1000 to 10000 nM
21,CS(=O)(=O)Nc1ccc(-n2ncc3c(=O)n(CC4(O)CCN(C(=O)C5CC5)CC4)cnc32)cc1 [Compound I-1431],1000 to 10000 nM
22,O=C(C1CC1)N1CCC(O)(Cn2cnc3c(cnn3-c3ccc(NS(=O)(=O)C4CC4)cc3)c2=O)CC1 [Compound I-1432],1000 to 10000 nM
23,O=C(C1CC1)N1CCC(O)(Cn2cnc3c(cnn3-c3ccc(NS(=O)(=O)Cc4ccc(F)cc4)cc3)c2=O)CC1 [Compound I-1433],1000 to 10000 nM
24,O=C(c1cnc(C2CC2)o1)N1CCC(O)(Cn2cnc3c(cnn3-c3ccc(C(F)(F)F)cc3)c2=O)CC1 [Compound I-1437],1000 to 10000 nM
